In ChEMBL document CHEMBL4130473, “Design, synthesis and biological evaluation of 4,7,12,12a-tetrahydro-5H-thieno[3',2':3,4]pyrido[1,2-b]isoquinolines as novel adenosine 5'-monophosphate-activated protein kinase (AMPK) indirect activators for the treatment of type 2 diabetes” (Eur J Med Chem, 2017):
Active and inactive are the calls of the source. The rule behind the calls is not given here.

Tests used:
[1] = biological target: AMP-activated protein kinase alpha-1/beta-2/gamma-3 (Homo sapiens) (UniProt O43741+Q13131+Q9UGI9); assay: Activation of human recombinant AMPKalpha1beta2gamma3 expressed in Escherichia coli at 20 uM incubated for 1 hr using serine/threonine kinase substrate
Hepatocyte [2] = assay: Potency index, ratio of berberine potency to compound potency for inhibition of glucose production in Sprague-Dawley rat primary hepatocytes grown under gluconeogenic medium aincubated for 6 hrs by glucose assay reagent based glucose oxidase method; type: functional
Hepatocyte [3] = assay: Inhibition of glucose production in Sprague-Dawley rat primary hepatocytes grown under gluconeogenic medium assessed as glucose production level at 5 uM incubated for 6 hrs by glucose assay reagent based glucose oxidase method (reference value: 100%); type: functional; set-up: scale not given: the % may be the effect or the level left
L6 [4] = assay: Inhibition of oxygen consumption rate in rat L6 cells assessed as oxygen consumption level at 10 uM (reference value: 100 +/- 1.6%); type: functional; set-up: scale not given: the % may be the effect or the level left
[5] = Cmax in C57BL/6J mouse at 10 mg/kg, po; type: ADME, organism-based; set-up: dose 10 mg/kg, route oral; conditions: in vivo
L6 [6] = assay: Inhibition of oxygen consumption rate in rat L6 cells assessed as oxygen consumption level at 20 uM (reference value: 100 +/- 1.6%); type: functional; set-up: scale not given: the % may be the effect or the level left
[7] = Inhibition of oxygen consumption rate in isolated mitochondria from rat L6 cells assessed as oxygen consumption level at 10 uM (reference value: 100 +/- 1.9%); type: functional; set-up: scale not given: the % may be the effect or the level left
[8] = AUCt in Sprague-Dawley rat at 10 mg/kg, po; type: ADME, organism-based; conditions: in vivo
[9] = AUCt in C57BL/6J mouse at 10 mg/kg, po; type: ADME, organism-based; conditions: in vivo
[10] = Oral bioavailability in Sprague-Dawley rat at 10 mg/kg; type: ADME, organism-based; conditions: in vivo
[11] = Inhibition of oxygen consumption rate in isolated mitochondria from rat L6 cells assessed as oxygen consumption level at 1.2 uM (reference value: 100 +/- 1.9%); type: functional; set-up: scale not given: the % may be the effect or the level left
[12] = biological target: AMP-activated protein kinase alpha-2/beta-1/gamma-3 (Homo sapiens) (UniProt P54646+Q9Y478+Q9UGI9); assay: Activation of human recombinant AMPKalpha2beta1gamma3 expressed in Escherichia coli at 20 uM incubated for 1 hr using serine/threonine kinase substrate
Sequence of AMP-activated protein kinase alpha-2/beta-1/gamma-3 (Homo sapiens) (P54646 whole entry): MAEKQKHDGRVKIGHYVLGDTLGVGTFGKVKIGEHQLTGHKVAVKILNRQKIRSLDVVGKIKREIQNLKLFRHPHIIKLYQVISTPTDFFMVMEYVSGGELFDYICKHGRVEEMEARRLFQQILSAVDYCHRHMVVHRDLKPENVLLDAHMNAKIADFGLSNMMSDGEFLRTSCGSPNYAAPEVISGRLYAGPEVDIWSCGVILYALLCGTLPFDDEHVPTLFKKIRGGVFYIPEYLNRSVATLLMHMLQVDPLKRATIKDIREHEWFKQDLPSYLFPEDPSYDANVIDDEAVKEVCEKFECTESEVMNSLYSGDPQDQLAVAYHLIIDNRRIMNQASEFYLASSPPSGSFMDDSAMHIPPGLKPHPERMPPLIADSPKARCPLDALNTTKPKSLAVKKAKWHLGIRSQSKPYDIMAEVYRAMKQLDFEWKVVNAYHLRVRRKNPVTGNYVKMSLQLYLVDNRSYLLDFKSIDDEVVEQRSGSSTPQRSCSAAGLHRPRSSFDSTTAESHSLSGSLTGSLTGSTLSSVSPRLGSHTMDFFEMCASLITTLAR
Sequence of AMP-activated protein kinase alpha-2/beta-1/gamma-3 (Homo sapiens) (Q9UGI9 whole entry partner): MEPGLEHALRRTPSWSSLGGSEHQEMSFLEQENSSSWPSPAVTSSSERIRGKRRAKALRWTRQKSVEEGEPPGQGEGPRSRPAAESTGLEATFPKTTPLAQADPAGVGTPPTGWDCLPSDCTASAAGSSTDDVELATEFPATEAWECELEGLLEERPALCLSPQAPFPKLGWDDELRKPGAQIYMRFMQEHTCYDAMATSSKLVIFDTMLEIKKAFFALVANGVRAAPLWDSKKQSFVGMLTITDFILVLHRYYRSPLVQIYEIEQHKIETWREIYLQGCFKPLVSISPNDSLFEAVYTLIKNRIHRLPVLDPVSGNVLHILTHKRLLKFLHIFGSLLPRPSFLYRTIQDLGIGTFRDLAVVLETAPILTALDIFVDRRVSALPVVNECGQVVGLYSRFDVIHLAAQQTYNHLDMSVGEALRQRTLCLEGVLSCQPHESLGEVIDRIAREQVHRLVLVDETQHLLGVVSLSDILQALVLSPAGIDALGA
Sequence of AMP-activated protein kinase alpha-2/beta-1/gamma-3 (Homo sapiens) (Q9Y478 2-270 partner limits assumed): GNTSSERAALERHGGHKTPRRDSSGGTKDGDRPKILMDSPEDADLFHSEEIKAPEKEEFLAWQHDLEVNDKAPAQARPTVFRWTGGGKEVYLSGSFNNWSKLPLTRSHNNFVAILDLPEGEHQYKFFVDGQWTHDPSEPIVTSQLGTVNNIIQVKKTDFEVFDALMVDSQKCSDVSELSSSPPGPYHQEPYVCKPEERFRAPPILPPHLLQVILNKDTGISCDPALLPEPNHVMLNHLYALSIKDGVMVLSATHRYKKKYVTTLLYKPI

[13] = Tmax in C57BL/6J mouse at 10 mg/kg, po; type: ADME, organism-based; conditions: in vivo
[14] = Half life in Sprague-Dawley rat at 10 mg/kg, po; type: ADME, organism-based; conditions: in vivo
[15] = biological target: Voltage-gated inwardly rectifying potassium channel KCNH2 (Homo sapiens, UniProt Q12809); assay: Inhibition of human ERG by patch clamp assay
Sequence of Voltage-gated inwardly rectifying potassium channel KCNH2 (Q12809 whole entry): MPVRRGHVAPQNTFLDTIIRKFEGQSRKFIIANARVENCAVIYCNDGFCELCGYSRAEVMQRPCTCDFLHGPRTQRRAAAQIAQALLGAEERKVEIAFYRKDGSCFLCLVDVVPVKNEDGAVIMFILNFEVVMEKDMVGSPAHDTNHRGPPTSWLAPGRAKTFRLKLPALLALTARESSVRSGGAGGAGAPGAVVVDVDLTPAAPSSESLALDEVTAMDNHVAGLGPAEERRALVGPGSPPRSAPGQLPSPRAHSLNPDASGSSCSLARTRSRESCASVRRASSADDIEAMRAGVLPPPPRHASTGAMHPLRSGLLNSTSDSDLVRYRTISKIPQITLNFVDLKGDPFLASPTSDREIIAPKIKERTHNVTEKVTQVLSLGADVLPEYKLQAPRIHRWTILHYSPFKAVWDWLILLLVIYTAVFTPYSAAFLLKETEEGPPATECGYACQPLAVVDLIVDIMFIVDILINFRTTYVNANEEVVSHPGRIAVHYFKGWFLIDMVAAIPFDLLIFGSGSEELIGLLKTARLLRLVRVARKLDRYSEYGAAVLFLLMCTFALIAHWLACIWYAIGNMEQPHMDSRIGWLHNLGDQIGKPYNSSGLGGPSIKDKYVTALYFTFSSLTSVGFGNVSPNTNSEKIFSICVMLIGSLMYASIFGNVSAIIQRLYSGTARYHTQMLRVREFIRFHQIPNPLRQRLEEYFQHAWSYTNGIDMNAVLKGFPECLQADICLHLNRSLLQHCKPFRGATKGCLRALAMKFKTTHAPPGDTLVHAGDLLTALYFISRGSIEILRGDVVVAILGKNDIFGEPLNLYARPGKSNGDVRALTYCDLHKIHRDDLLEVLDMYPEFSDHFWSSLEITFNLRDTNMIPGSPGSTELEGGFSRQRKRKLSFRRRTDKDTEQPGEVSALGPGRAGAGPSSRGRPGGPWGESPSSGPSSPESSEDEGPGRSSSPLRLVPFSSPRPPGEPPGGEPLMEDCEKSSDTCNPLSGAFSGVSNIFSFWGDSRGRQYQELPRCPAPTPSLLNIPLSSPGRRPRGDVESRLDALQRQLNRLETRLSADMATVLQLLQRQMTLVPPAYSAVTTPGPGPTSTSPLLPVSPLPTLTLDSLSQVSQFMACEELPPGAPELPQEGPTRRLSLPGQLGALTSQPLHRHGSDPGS

[16] = MRT in C57BL/6J mouse at 10 mg/kg, po; type: ADME, organism-based; conditions: in vivo
[17] = AUCt in Sprague-Dawley rat at 2 mg/kg, iv; type: ADME, organism-based; conditions: in vivo
L6 [18] = assay: Inhibition of mitochondrial membranes potential in rat L6 cells assessed as mitochondrial membranes potential level at 20 uM incubated for 40 mins by JC1 dye staining based fluorescence assay (reference value: 100 +/- 2.8%); type: functional; set-up: scale not given: the % may be the effect or the level left
[19] = MRT in Sprague-Dawley rat at 2 mg/kg, iv; type: ADME, organism-based; conditions: in vivo
L6 [20] = assay: Activation of AMPKalpha in rat L6 cells assessed as increase in AMPKalpha Thr172 phosphorylation incubated for 1 hrs by Western blot method; type: cell-based
L6 [21] = assay: Inhibition of oxygen consumption rate in rat L6 cells; type: functional, cell-based
[22] = biological target: AMPK alpha1/beta1/gamma2 (Homo sapiens) (UniProt Q9UGJ0+Q9Y478+Q13131); assay: Activation of human recombinant AMPKalpha1beta1gamma2 expressed in Escherichia coli at 20 uM incubated for 1 hr using serine/threonine kinase substrate
[23] = Tmax in Sprague-Dawley rat at 2 mg/kg, iv; type: ADME, organism-based; conditions: in vivo
[24] = AUC in C57BL/6J mouse at 10 mg/kg, po; type: ADME, organism-based; conditions: in vivo
Hepatocyte [25] = assay: Inhibition of glucose production in Sprague-Dawley rat primary hepatocytes grown under gluconeogenic medium assessed as glucose production level at 20 uM incubated for 6 hrs by glucose assay reagent based glucose oxidase method (reference value: 100%); type: functional; set-up: scale not given: the % may be the effect or the level left
Hepatocyte [26] = assay: Inhibition of glucose production in Sprague-Dawley rat primary hepatocytes grown under gluconeogenic medium incubated for 6 hrs by glucose assay reagent based glucose oxidase method (reference value: 100%); type: functional, cell-based
Mus musculus [27] = assay: Antidiabetic activity in db/db mouse assessed as effect on glucose tolerance capacity by measuring blood glucose AUC level at 120 mg/kg/day dosed via gavage for 4 weeks by OGTT; type: functional, organism-based
L6 [28] = assay: Inhibition of oxygen consumption rate in isolated mitochondria from rat L6 cells; type: functional
L6 [29] = assay: Activation of AMPKalpha in rat L6 cells assessed as increase in ACC phosphorylation incubated for 1 hrs by Western blot method; type: cell-based
[30] = AUC in Sprague-Dawley rat at 10 mg/kg, po; type: ADME, organism-based; conditions: in vivo
[31] = Tmax in Sprague-Dawley rat at 10 mg/kg, po; type: ADME, organism-based; conditions: in vivo
Mus musculus [32] = assay: Antidiabetic activity in db/db mouse assessed as reduction in fasting blood glucose level at 120 mg/kg/day dosed via gavage for 4 weeks measured during 2 to 4 weeks; type: functional, organism-based
[33] = biological target: AMPK alpha2/beta1/gamma1 (Homo sapiens) (UniProt P54646+P54619+Q9Y478); assay: Activation of human recombinant AMPKalpha2beta1gamma1 expressed in Escherichia coli at 20 uM incubated for 1 hr using serine/threonine kinase substrate
Sequence of AMPK alpha2/beta1/gamma1 (Homo sapiens) (P54619 whole entry partner): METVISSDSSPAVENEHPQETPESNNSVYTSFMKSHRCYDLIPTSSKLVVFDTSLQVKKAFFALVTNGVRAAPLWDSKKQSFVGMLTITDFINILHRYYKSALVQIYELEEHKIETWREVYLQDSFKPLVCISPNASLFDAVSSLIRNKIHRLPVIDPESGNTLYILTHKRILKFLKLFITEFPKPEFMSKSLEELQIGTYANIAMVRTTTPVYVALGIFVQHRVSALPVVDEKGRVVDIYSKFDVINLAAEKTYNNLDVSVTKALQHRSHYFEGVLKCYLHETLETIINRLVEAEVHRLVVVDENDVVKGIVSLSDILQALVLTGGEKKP
Sequence of AMPK alpha2/beta1/gamma1 (Homo sapiens) (P54646 whole entry): as the sequence (P54646 whole entry) above
Sequence of AMPK alpha2/beta1/gamma1 (Homo sapiens) (Q9Y478 2-270 partner limits assumed): as the sequence (Q9Y478 2-270 partner limits assumed) above

L6 [34] = assay: Stimulation of glucose consumption in rat L6 cells at 20 uM incubated for 12 hrs by glucose assay reagent based glucose oxidase method relative to untreated control; type: functional
[35] = biological target: AMPK alpha1/beta2/gamma1 (Homo sapiens) (UniProt O43741+P54619+Q13131); assay: Activation of human recombinant AMPKalpha1beta2gamma1 expressed in Escherichia coli at 20 uM incubated for 1 hr using serine/threonine kinase substrate
[36] = Cmax in Sprague-Dawley rat at 2 mg/kg, iv; type: ADME, organism-based; set-up: dose 2 mg/kg, route intravenous; conditions: in vivo
[37] = Cmax in Sprague-Dawley rat at 10 mg/kg, po; type: ADME, organism-based; set-up: dose 10 mg/kg, route oral; conditions: in vivo
[38] = MRT in Sprague-Dawley rat at 10 mg/kg, po; type: ADME, organism-based; conditions: in vivo
[39] = AUC in Sprague-Dawley rat at 2 mg/kg, iv; type: ADME, organism-based; conditions: in vivo
[40] = Half life in Sprague-Dawley rat at 2 mg/kg, iv; type: ADME, organism-based; conditions: in vivo
[41] = biological target: AMP-activated protein kinase (AMPK) alpha-1/beta-1/gamma-1 (Homo sapiens) (UniProt P54619+Q9Y478+Q13131); assay: Activation of human recombinant AMPKalpha1beta1gamma1 expressed in Escherichia coli at 20 uM incubated for 1 hr using serine/threonine kinase substrate
Sequence of AMP-activated protein kinase (AMPK) alpha-1/beta-1/gamma-1 (Homo sapiens) (P54619 whole entry): as the sequence (P54619 whole entry partner) above
Sequence of AMP-activated protein kinase (AMPK) alpha-1/beta-1/gamma-1 (Homo sapiens) (Q13131 whole entry partner): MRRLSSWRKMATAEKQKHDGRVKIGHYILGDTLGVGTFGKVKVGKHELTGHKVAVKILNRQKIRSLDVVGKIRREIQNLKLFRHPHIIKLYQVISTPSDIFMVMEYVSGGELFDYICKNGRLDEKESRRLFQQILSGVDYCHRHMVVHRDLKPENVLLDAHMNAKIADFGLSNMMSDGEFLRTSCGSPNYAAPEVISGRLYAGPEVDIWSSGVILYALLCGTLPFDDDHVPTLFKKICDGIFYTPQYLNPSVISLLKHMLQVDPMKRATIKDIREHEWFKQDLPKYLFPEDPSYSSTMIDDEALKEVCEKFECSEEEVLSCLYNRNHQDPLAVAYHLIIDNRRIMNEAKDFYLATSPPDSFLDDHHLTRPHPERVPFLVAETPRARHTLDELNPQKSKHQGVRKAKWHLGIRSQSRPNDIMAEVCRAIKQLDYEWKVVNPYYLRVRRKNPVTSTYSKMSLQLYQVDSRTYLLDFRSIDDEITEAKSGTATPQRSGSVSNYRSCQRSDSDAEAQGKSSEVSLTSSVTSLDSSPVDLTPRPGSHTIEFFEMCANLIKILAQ
Sequence of AMP-activated protein kinase (AMPK) alpha-1/beta-1/gamma-1 (Homo sapiens) (Q9Y478 2-270 partner limits assumed): as the sequence (Q9Y478 2-270 partner limits assumed) above

[42] = biological target: AMP-activated protein kinase alpha-2/beta-2/gamma-2 (Homo sapiens) (UniProt P54646+O43741+Q9UGJ0); assay: Activation of human recombinant AMPKalpha2beta2gamma2 expressed in Escherichia coli at 20 uM incubated for 1 hr using serine/threonine kinase substrate
Hepatocyte [43] = assay: Inhibition of glucose production in Sprague-Dawley rat primary hepatocytes grown under gluconeogenic medium assessed as glucose production level at 10 uM incubated for 6 hrs by glucose assay reagent based glucose oxidase method (reference value: 100%); type: functional; set-up: scale not given: the % may be the effect or the level left
[44] = biological target: AMPK alpha2/beta2/gamma1 (Homo sapiens) (UniProt P54646+O43741+P54619); assay: Activation of human recombinant AMPKalpha2beta2gamma1 expressed in Escherichia coli at 20 uM incubated for 1 hr using serine/threonine kinase substrate
[45] = Inhibition of oxygen consumption rate in isolated mitochondria from rat L6 cells assessed as oxygen consumption level at 5 uM (reference value: 100 +/- 1.9%); type: functional; set-up: scale not given: the % may be the effect or the level left
[46] = Inhibition of oxygen consumption rate in isolated mitochondria from rat L6 cells assessed as oxygen consumption level at 2.5 uM (reference value: 100 +/- 1.9%); type: functional; set-up: scale not given: the % may be the effect or the level left
Rattus norvegicus = assay: Clearance in Sprague-Dawley rat at 2 mg/kg, iv; type: ADME, organism-based; conditions: in vivo

CCc1cc2c(s1)CCN1Cc3c(OC)ccc(OC)c3CC21 (configuration not stated)
Activity [1]: inactive
Ratio (Hepatocyte [2]): 1.7
Activity (Hepatocyte [3]): 25.7%
Activity (L6 [4]): 54%
Cmax [5]: 113 ng/mL
Activity (L6 [6]): 47.5%
Activity [7]: 41.7%
AUC(0-t) [8]: 825 ng·h/mL
AUC(0-t) [9]: 188 ng·h/mL
bioavailability [10]: 45.4%
Activity [11]: 76.2%
Activity [12]: inactive
Tmax [13]: 0.25 h
half-life [14]: 7.2 h
IC50 [15]: 10.5 µM
MRT [16]: 5.1 h
AUC(0-t) [17]: 364 ng·h/mL
Activity (L6 [18]): 59.5%
MRT [19]: 5.8 h
Activity (L6 [20]): Dose-dependent effect
inhibition (L6 [21]): Dose-dependent effect
Activity [22]: inactive
Tmax [23]: 0.25 h
AUC [24]: 244 ng·h/mL
Activity (Hepatocyte [25]): 14.9%
inhibition (Hepatocyte [26]): Dose-dependent effect
Activity (Mus musculus [27]): inactive
inhibition (L6 [28]): Dose-dependent effect
Activity (L6 [29]): Dose-dependent effect
AUC [30]: 889 ng·h/mL
Tmax [31]: 0.5 h
Activity (Mus musculus [32]): Active
Activity [33]: inactive
Activity (L6 [34]): 228.3%
Activity [35]: inactive
Cmax [36]: 114 ng/mL
Cmax [37]: 162 ng/mL
MRT [38]: 5.5 h
AUC [39]: 432 ng·h/mL
half-life [40]: 10.8 h
Activity [41]: inactive
Activity [42]: inactive
Activity (Hepatocyte [43]): 16.3%
Activity [44]: inactive
Activity [45]: 54%
Activity [46]: 66.3%
clearance (Rattus norvegicus): 76.7 mL/min/kg
